Results reported in patent US10745399B2 (priority 2015, dated 2020).

Each compound was assayed on CHK2 phosphorylation (phospho-Thr68) in HCT116 cells (assay: Cellular pCHK2 assay, bleomycin-induced phosphorylation of CHK2 (phospho-Thr68), immunofluorescence high content). Conditions: Homo sapiens, HCT-116; HCT116 cells, 10 μM bleomycin, 4 h; read-out: IC50 (pCHK2).
Type: cell-based
From the text: For the identification of substances which inhibit the phosphorylation of the protein kinase CHK2 at the amino acid threonine 68, an immunofluorescence-based “high content” analysis assay was used in HCT116 cells.
In vitro cell-based immunofluorescence assay for the identification of inhibitors of bleomycin-induced phosphorylation of CHK2 (phospho-Thr68) in the human colon carcinoma cell line HCT116:
HCT116 cells are sown out in a defined cell density in 384-well plates in culture medium (DMEM high glucose, 2 mM GlutaMax, 1 mM Na pyruvate, 10% FCS) and incubated overnight at 37° C. and 10% of CO2. On the following day, the test substances are added in a defined concentration range (1 nM to 30 μM) in combination with 10 μM bleomycin, where the concentration of the solvent DMSO is kept constant at 0.5%. After incubation for four hours at 37° C. and 10% of CO2, the cells are fixed (5 min, 4% formaldehyde in PBS), permeabilised (10 min, 0.2% Triton X-100 in PBS) and, after blocking of nonspecific binding sites (10% goat serum, 1% BSA in PBS), incubated overnight at 4° C. with a specific anti-pCHK2 antibody (cell signalling #2661). pCHK2 (Thr68) is determined using an Alexa488-labelled secondary anti-rabbit IgG antibody. Parallel staining of DNA with propidium iodide enables determination of the cell count. The pCHK2 signal is detected using a high-content imager (Molecular Devices IMX Ultra) and automatic image analysis using the MetaXpress software belonging to the instrument. The number of cell nuclei which have a pCHK2 signal above a defined background is determined.

SMILES | IC50 [nM]
COc1cc2ncc3c(c2cc1-c1cnn(C)c1)n(-c1ccc(F)cn1)c(=O)n3C [Compound Example 50, 1-(5-Fluoropyridin-2-yl)-7-methoxy-3-methyl-8-(1-methyl-1H-pyrazol-4-yl)-1,3-dihydroimidazo[4,5-c]-quinolin-2-one] | 200 to 1000
COc1cc2ncc3c(c2cc1-c1cnn(C)c1)n(-c1ncccn1)c(=O)n3C [Compound Example 52, 7-Methoxy-3-methyl-8-(1-methyl-1H-pyrazol-4-yl)-1-pyrimidin-2-yl-1,3-dihydro-imidazo[4,5-c]quinolin-2-one] | 200 to 1000
CCOc1cnc(-n2c(=O)n(C)c3cnc4cc(OC)c(-c5cnn(C)c5)cc4c32)c(F)c1 [compound 113, 1-(5-Ethoxy-3-fluoropyridin-2-yl)-7-methoxy-3-methyl-8-(1-methyl-1H-pyrazol-4-yl)-1,3-dihydroimidazo[4,5-c]-quinolin-2-one] | < 200
CCn1cc(-c2cc3c(cc2OC)ncc2c3n(-c3ncc(OC)cc3F)c(=O)n2C)cn1 [compound 111, 8-(1-Ethyl-1H-pyrazol-4-yl)-1-(3-fluoro-5-methoxy-pyridin-2-yl)-7-methoxy-3-methyl-1,3-dihydroimidazo-[4,5-c]quinolin-2-one] | 200 to 1000
COc1cc2ncc3c(c2cc1-c1cnn(C)c1)n(-c1c(F)cncc1C1CC1)c(=O)n3C [compound 202, 1-(3-Cyclopropyl-5-fluoro-pyridin-4-yl)-7-methoxy-3-methyl-8-(1-methyl-1H-pyrazol-4-yl)-1,3-dihydro-imidazo[4,5-c]quinolin-2-one] | 200 to 1000
COc1cc2ncc3c(c2cc1-c1cnn(C)c1)n(-c1ncc(OCC2CN(C)C2)cc1F)c(=O)n3C [compound 207, 1-[3-Fluoro-5-(1-methyl-azetidin-3-ylmethoxy)-pyridin-2-yl]-7-methoxy-3-methyl-8-(1-methyl-1H-pyrazol-4-yl)-1,3-dihydro-imidazo[4,5-c]quinolin-2-one] | 200 to 1000
COc1cnc(-n2c(=O)n(C)c3cnc4cc(OC)c(-c5cn(C)nc5C)cc4c32)c(F)c1 [compound 106, 8-(1,3-Dimethyl-1H-pyrazol-4-yl)-1-(3-fluoro-5-methoxypyridin-2-yl)-7-methoxy-3-methyl-1,3-dihydroimidazo[4,5-c]-quinolin-2-one] | 200 to 1000
CNCCOc1cnc(-n2c(=O)n(C)c3cnc4cc(OC)c(-c5cnn(C)c5)cc4c32)c(F)c1 [compound 206] | 200 to 1000
COc1cc2ncc3c(c2cc1-c1cc(N)n[nH]1)n(-c1ncccc1F)c(=O)n3C [compound 65, 8-(3-Amino-1H-pyrazol-5-yl)-1-(3-fluoro-2-pyridyl)-7-methoxy-3-methyl-imidazo-[4,5-c]quinolin-2-one] | 200 to 1000
COc1cc2ncc3c(c2cc1-c1cn(C)nn1)n(-c1cn(C)nc1C)c(=O)n3C [Compound Example 42, 1-(1,3-Dimethyl-1H-pyrazol-4-yl)-7-methoxy-3-methyl-8-(1-methyl-1H-1,2,3-triazol-4-yl)-1,3-dihydroimidazo-[4,5-c]quinolin-2-one] | 200 to 1000
COc1cnc(-n2c(=O)[nH]c3cnc4cc(OC)c(-c5cnn(C)c5)cc4c32)c(F)c1 [compound 115, 1-(3-Fluoro-5-methoxy-pyridin-2-yl)-7-methoxy-8-(1-methyl-1H-pyrazol-4-yl)-1,3-dihydroimidazo[4,5-c]-quinolin-2-one] | 200 to 1000
COc1cc2ncc3c(c2cc1-c1cnc2nc(C)[nH]c2c1)n(-c1c(F)cncc1OC)c(=O)n3C [compound 152, 1-(3-Fluoro-5-methoxy-pyridin-4-yl)-7-methoxy-3-methyl-8-(2-methyl-1H-imidazo[4,5-b]pyridin-6-yl)-1,3-dihydroimidazo[4,5-c]-quinolin-2-one] | < 200
COc1cc2ncc3[nH]c(=O)n(-c4c(F)cncc4OC)c3c2cc1-c1cn(C)nc1C [compound 129, 8-(1,3-Dimethyl-1H-pyrazol-4-yl)-1-(3-fluoro-5-methoxy-pyridin-4-yl)-7-methoxy-1,3-dihydroimidazo[4,5-c]-quinolin-2-one] | 1000 to 2000
COc1cc2ncc3c(c2cc1-c1cnn(C)c1)n(-c1ncc(Cl)cc1F)c(=O)n3C [compound 119, 1-(5-Chloro-3-fluoropyridin-2-yl)-7-methoxy-3-methyl-8-(1-methyl-1H-pyrazol-4-yl)-1,3-dihydroimidazo[4,5-c]-quinolin-2-one] | < 200
COc1cnc(-n2c(=O)n(C)c3cnc4cc(OC)c(-c5ccn[nH]5)cc4c32)c(F)c1 [compound 109, 1-(3-Fluoro-5-methoxy-pyridin-2-yl)-7-methoxy-3-methyl-8-(2H-pyrazol-3-yl)-1,3-dihydroimidazo[4,5-c] quinolin-2-one] | < 200
CNC(=O)c1cnc(-n2c(=O)n(C)c3cnc4cc(OC)c(-c5cn(C)nc5C)cc4c32)c(F)c1 [compound 139, 6-[8-(1,3-Dimethyl-1H-pyrazol-4-yl)-7-methoxy-3-methyl-2-oxo-2,3-dihydro-imidazo[4,5-c]quinolin-1-yl]-5-fluoro-N-methyl-nicotinamid] | 200 to 1000
COc1cc2ncc3c(c2cc1-c1cnn(C)c1)n(-c1c(F)cncc1OCF)c(=O)n3C [compound 148] | < 200
COc1cc2ncc3c(c2cc1-c1cnn[nH]1)n(-c1c(F)cncc1OC)c(=O)n3C [compound 134, 1-(3-Fluoro-5-methoxy-pyridin-4-yl)-7-methoxy-3-methyl-8-(3H-1,2,3-triazol-4-yl)-1,3-dihydroimidazo-[4,5-c]quinolin-2-one] | 200 to 1000
CCn1cc(-c2cc3c(cc2OC)ncc2c3n(-c3ccncc3OC)c(=O)n2C)cn1 [compound 104, 8-(1-Ethyl-1H-pyrazol-4-yl)-7-methoxy-1-(3-methoxy-pyridin-4-yl)-3-methyl-1,3-dihydroimidazo[4,5-c] quinolin-2-one] | 200 to 1000
COc1cc2ncc3c(c2cc1-c1cnn(C)c1)n(-c1ccncc1C1CC1)c(=O)n3C [compound 200, 1-(3-Cyclopropylpyridin-4-yl)-7-methoxy-3-methyl-8-(1-methyl-1H-pyrazol-4-yl)-1,3-dihydroimidazo[4,5-c] quinolin-2-one] | 200 to 1000
COc1cc2ncc3c(c2cc1-c1ccn[nH]1)n(-c1c(F)cncc1OC)c(=O)n3C [compound 124, 1-(3-Fluoro-5-methoxy-pyridin-4-yl)-7-methoxy-3-methyl-8-(2H-pyrazol-3-yl)-1,3-dihydroimidazo[4,5-c] quinolin-2-one] | 200 to 1000
COc1cnc(-n2c(=O)n(C)c3cnc4cc(OC)c(-c5ccc6nc(C)[nH]c6c5)cc4c32)c(F)c1 [compound 144, 1-(3-Fluoro-5-methoxy-pyridin-2-yl)-7-methoxy-3-methyl-8-(2-methyl-3H-benzoimidazol-5-yl)-1,3-dihydroimidazo[4,5-c]-quinolin-2-one] | 200 to 1000
COc1cc2ncc3c(c2cc1-c1cnc2nc(C)[nH]c2c1)n(-c1cn(C)nc1C)c(=O)n3C [compound 154, 1-(1,3-Dimethyl-1H-pyrazol-4-yl)-7-methoxy-3-methyl-8-(2-methyl-1H-imidazo[4,5-b]pyridin-6-yl)-1,3-dihydro-imidazo[4,5-c]quinolin-2-one] | 1000 to 2000
COc1cc2ncc3[nH]c(=O)n(-c4c(F)cncc4OC)c3c2cc1-c1cnn(C)c1 [compound 116, 1-(3-Fluoro-5-methoxy-pyridin-4-yl)-7-methoxy-8-(1-methyl-1H-pyrazol-4-yl)-1,3-dihydroimidazo[4,5-c]-quinolin-2-one] | 1000 to 2000
C=CCOc1cnc(-n2c(=O)n(C)c3cnc4cc(OC)c(-c5cnn(C)c5)cc4c32)c(F)c1 [compound 204, 1-(5-Allyloxy-3-fluoropyridin-2-yl)-7-methoxy-3-methyl-8-(1-methyl-1H-pyrazol-4-yl)-1,3-dihydroimidazo[4,5-c]-quinolin-2-one] | 200 to 1000
CCn1cc(-c2cc3c(cc2OC)ncc2c3n(-c3c(F)cncc3OC)c(=O)n2C)c(C)n1 [compound 142, 8-(1-Ethyl-3-methyl-1H-pyrazol-4-yl)-1-(3-fluoro-5-methoxypyridin-4-yl)-7-methoxy-3-methyl-1,3-dihydroimidazo[4,5-c] quinolin-2-one] | 200 to 1000
COc1cc2ncc3c(c2cc1-c1cnn(C)n1)n(-c1ncc(F)cc1F)c(=O)n3C [compound 101, 1-(3,5-Difluoropyridin-2-yl)-7-methoxy-3-methyl-8-(2-methyl-2H-1,2,3-triazol-4-yl)-1,3-dihydroimidazo-[4,5-c]quinolin-2-one] | < 200
COc1cc2ncc3[nH]c(=O)n(-c4ncc(F)cc4F)c3c2cc1-c1cnn(C)c1 [compound 107, 1-(3,5-Difluoropyridin-2-yl)-7-methoxy-8-(1-methyl-1H-pyrazol-4-yl)-1,3-dihydro-imidazo[4,5-c]quinolin-2-one] | 200 to 1000
COc1cc2ncc3c(c2cc1-c1cn(C)nn1)n(-c1c(F)cncc1OC)c(=O)n3C [compound 131, 1-(3-Fluoro-5-methoxy-pyridin-4-yl)-7-methoxy-3-methyl-8-(1-methyl-1H-1,2,3-triazol-4-yl)-1,3-dihydroimidazo[4,5-c]-quinolin-2-one] | 200 to 1000
